{
  "source": "patent US6093730A",
  "about": "“Substituted isoquinoline-3-carboxamides, their preparation and their use as pharmaceuticals” (Hoechst Marion Roussel Deutschland GmbH, priority 1997, dated 2000)",
  "origin": "cited, not measured here",
  "key": {"[1]": {"tested_on": "collagen biosynthesis", "details": "Franklin et al.; cited from earlier work"}, "[2]": {"tested_on": "liver", "details": "rats; Franklin 1997; cited from earlier work"}},
  "data": [
    {"smiles": "O=C(O)CNC(=O)c1ncc2cc(Br)ccc2c1O", "note": "[N-((7-bromo-4-hydroxy-isoquinolin-3-yl)carbonyl)glycine]", "values": [
      {"measurement": "in-vivo activity on collagen biosynthesis", "setting": "[1]", "value": "in-vivo inhibition of collagen biosynthesis"},
      {"measurement": "toxic action on the liver", "setting": "[2]", "value": "toxic action on the liver (steatosis)"}
    ]}
  ]
}
